US6197771A, “Glutamate (ampa/kainate) receptor antagonists: N-substituted fused azacycloalkylquinoxalinediones” (Warner-Lambert Company, priority 2000, dated 2001)
Counter-ions that a name gives are not always drawn.

Key:
AMPA receptor = AMPA receptor binding (Honore et al.)
[1] = target: kainate site (non-NMDA receptor); experiment: Kainate site (non-NMDA receptor) binding (London and Coyle)
[2] = target: T1, glycine site of the NMDA receptor (Rattus norvegicus, UniProt P35439); experiment: Binding to the glycine site of the NMDA receptor (Jones et al.)
T1 construct: from tissue

| SMILES | IC50 (AMPA receptor) [µM] | IC50 [1] [µM] | inhibition at 10 µM [2] [%] |
| --- | --- | --- | --- |
| O=c1[nH]c2cc(Br)c3c(c2[nH]c1=O)CCN(CCCc1ccccc1)C3 [Example 54, 6-Bromo-1,4,7,8,9,10-hexahydro-8-(3-Phenylproyl)pyrido[3,4-f]quinoxaline-2,3-dione hydrochloride] | 43 | > 100 |  |
| O=c1[nH]c2cc(Br)c3c(c2[nH]c1=O)CN(CCc1ccccc1)CC3 [Example 11, 6-Bromo-1,4,7,8,9,10-hexahydro-9-(2-phenylethyl)pyrido[3,4-f]quinoxaline-2,3-dione] | > 100 | 9 | < 50 |
| O=C(c1ccc(Cl)cc1)N1CCc2c([N+](=O)[O-])cc3[nH]c(=O)c(=O)[nH]c3c2C1 [Example 37, 9-(4-Chlorobenzoyl)-1,4,7,8,9,10-hexahydro-6-nitropyrido[3,4-f]quinoxaline-2,3-dione] | 0.84 | 8.2 | 74 |
| O=C(Cc1ccccc1)N1CCc2c([N+](=O)[O-])cc3[nH]c(=O)c(=O)[nH]c3c2C1 [Example 38, 1,4,7,8,9,10-Hexahydro-6-nitro-9-(phenylacetyl)pyrido(3,4-f]quinoxaline-2,3-dione] | 0.24 | 1.62 | 99 |
| O=C(c1ccccc1)N1CCc2c([N+](=O)[O-])cc3[nH]c(=O)c(=O)[nH]c3c2C1 [Example 35, 9-Benzoyl-1,4,7,8,9,10-hexahydro-6-nitropyrido[3,4-f]quinoxaline-2,3-dione] | 0.37 | 1.38 | 80 |
| O=c1[nH]c2cc(Br)c3c(c2[nH]c1=O)CCN(Cc1cccc(C(F)(F)F)c1)C3 [Example 48, 6-Bromo-1,4,7,8,9,10-Hexahydro-8-[[3-(trifluoromethyl)methyl]pyrido[3,4-f]quinoxaline-2,3-dione hydrochloride] | 21 | 67 |  |
| O=c1[nH]c2cc([N+](=O)[O-])c3c(c2[nH]c1=O)CNCC3 [Example 31, 1,4,7,8,9,10-Hexahydro-6-nitropyrido[3,4-f]quinoxaline-2,3-dione] | 51 | 0.48 | 70 |
| O=c1[nH]c2ccc3c(c2[nH]c1=O)CNCC3 [Example 30, 1,4,7,8,9,10-Hexahydropyrido[3,4-f]quinoxaline-2,3-dione] | 84 | 56 |  |
| O=c1[nH]c2ccc3c(c2[nH]c1=O)CCN(Cc1ccc(C(F)(F)F)cc1)C3 [Example 26] | > 100 | > 100 |  |
| O=c1[nH]c2cc(Br)c3c(c2[nH]c1=O)CN(Cc1ccccc1)CC3 [Example 8, 6-Bromo-1,4,7,8,9,10-hexahydro-9-(phenylmethyl)pryrido[3,4-f]quinoxaline-2,3-dione] | 20 | 16 | < 50 |
| O=c1[nH]c2cc([N+](=O)[O-])c3c(c2[nH]c1=O)CN(Cc1ccc(C(F)(F)F)cc1)CC3 [Example 18] | 3.1 | 34 |  |
| O=C(Cc1ccc(Cl)cc1)N1CCc2c([N+](=O)[O-])cc3[nH]c(=O)c(=O)[nH]c3c2C1 [Example 39] | 0.84 | 8.2 | 98 |
| O=C(C1CCCCC1)N1CCc2c([N+](=O)[O-])cc3[nH]c(=O)c(=O)[nH]c3c2C1 [Example 36, 9-(Cyclohexylcarbonyl)-1,4,7,8,9,10-hexahydro-6-nitropyrido[3,4-f]quinoxaline-2,3-dione] | 0.34 | 5.87 | 88 |
| CC(C)(C)OC(=O)N1CCC(C(=O)N2CCc3ccc4[nH]c(=O)c(=O)[nH]c4c3C2)CC1 [Example 32, 1,1-dimethylethyl 4-[(1,2,3,4,7,8,9,10-octahydro-2,3-dioxopyrido[3,4-f]quinoxaline-9-yl)carbonyl]-1-piperidine carboxylate] | > 100 | 65 |  |
| O=c1[nH]c2cc(Br)c3c(c2[nH]c1=O)CN(CCCc1ccccc1)CC3 [Example 14, 6-Bromo-1,4,7,8,9,10-hexahydro-9-(3-phenylpropyl)pyrido[3,4-f]quinoxaline-2,3-dione] | > 100 | 40 | < 50 |
| CC(C)(C)OC(=O)N1CCC(C(=O)N2CCc3c([N+](=O)[O-])cc4[nH]c(=O)c(=O)[nH]c4c3C2)CC1 [Example 34, 1,1-dimethylethyl 4-[(1,2,3,4,7,8,9,10-octahydro-6-nitro-2,3-dioxopyrido[3,4-f]quinoxaline-9-yl)carbonyl]-1-piperidine carboxylate] | 0.58 | 6.9 | 81 |
| O=c1[nH]c2ccc3c(c2[nH]c1=O)CN(Cc1ccc(C(F)(F)F)cc1)CC3 [Example 17, 1,4,7,8,9,10-Hexahydro-9-[[4-(trifluoromethyl)phenyl]methyl]pyrido[3,4-f]quinoxaline-2,3-dione] | > 100 | > 100 |  |
